Test results taken from US20140005230A1 (priority 2011, published 2014).

What was measured:
[1] = LogP by HPLC on reversed phase columns (EEC directive 79/831 Annex V.A8); assay type: physicochemical; conditions: pH 2.7, 0.1% formic acid in water / acetonitrile gradient
Experimental: Measurement of Iog P values was performed according EEC directive 79/831 Annex V.A8 by HPLC (High Performance Liquid Chromatography) on reversed phase columns with the following method:
Measurement of LC-MS was done at pH 2.7 with 0.1% formic acid in water and with acetonitrile (contains 0.1% formic acid) as eluent with a linear gradient from 10% acetonitrle to 95% acetonitrile.
Calibration was done with not branched alkan2-ones (with 3 to 16 carbon atoms) with known log P-values (measurement of log P values using retention times with linear interpolation between successive alkanones). lambda-maX-values were determined using UV-spectra from 200 nm to 400 nm and the peak values of the chromatographic signals.

[2] = system: Phytophthora infestans; assay type: in vivo; conditions: tomatoes, preventive spray, 10 ppm of active ingredient, evaluated 3 days after inoculation
[3] = system: Plasmopara viticola; experiment: Plasmopara test (grapevines) / preventive; assay type: in vivo; conditions: preventive spray, 100 ppm of active ingredient, evaluated 6 days after inoculation
Experimental: Plasmopara Test (Grapevines)/Preventive
To produce a suitable preparation of active compound, 1 part by weight of active compound is mixed with the stated amounts of solvent and emulsifier, and the concentrate is diluted with water to the desired concentration.
To test for preventive activity, young plants are sprayed with the preparation of active compound at the stated rate of application. After the spray coating has dried on, the plants are inoculated with an aqueous spore suspension of Plasmopara viticola and then remain for 1 day in an incubation cabinet at approximately 20° C. and a relative atmospheric humidity of 100%. The plant is subsequently placed for 4 days in a greenhouse at approximately 21° C. and a relative atmospheric humidity of approximately 90%. The plants are then misted and placed for 1 day in an incubation cabinet.
The test is evaluated 6 days after the inoculation. 0% means an efficacy which corresponds to that of the untreated control, while an efficacy of 100% means that no disease is observed.

[4] = system: Pythium ultimum; experiment: Pythium test (cotton) / seed treatment; assay type: in vivo; conditions: 50 g/dt seed of active ingredient, greenhouse 7 days, emerged seedlings
Experimental: Pythium Test (cotton)/Seed Treatment
The test is performed under greenhouse conditions.
Cotton seeds, treated with the active compound or compound combinations, solved in N-methyl-2-pyrrolidon and diluted with water to the desired dosages, were sown in 6*6 cm pots containing 4 cm of a 1:1 mix of steamed field soil and sand.
Perlite was incubated with mycelium fragments of Pythium ultimum. 1 ml of infected perlite was scattered between the treated cotton seeds. Seeds were then covered by light expanded clay aggregate. Pots were incubated in the greenhouse 7 days at 20° C. and 80% relative humidity.
Assessment consisted of counting of emerged seedlings. 0% means an efficacy which corresponds to that of the control, while an efficacy of 100% means that all seedlings have emerged.

CC(=CC(=O)Nc1cccc(CON=C(c2ccccc2)n2nnnc2C)n1)C1CC1 (mixture of isomers) [Example 31]
LogP [1]: 3.59 | Eff. % [2]: 93%

Cc1nnnn1C(=NOCc1cccc(NC(=O)C=CC2CCCCC2)n1)c1ccccc1 (mixture of isomers) [Example 32]
LogP [1]: 4.46 | Eff. % [2]: 95%

CC(=CC(=O)Nc1cccc(CON=C(c2ccccc2)c2nnnn2C)n1)C1CC1 [Example 1, 3-cyclopropyl-N-{6-[({[(1-methyl-1H-tetrazol-5-yl)(phenyl)methylene]amino}oxy)methyl]pyridin-2-yl}but-2-enamide]
chromatographic logP ([1]; reversed phase HPLC column): 3.48 | Eff. % [2]: 95% | Eff. % [3]: 97% | Eff. % [4]: 100%

CC(=CC(=O)Nc1cccc(CON=C(c2ccccc2)c2nnnn2C)n1)C1CC1 [Example 2]
LogP [1]: 3.29 | Eff. % [2]: 100% | Eff. % [3]: 84%

CC(=CC(=O)Nc1cccc(CON=C(c2ccccc2)c2nnnn2C)n1)C1CC1 [Example 3]
LogP [1]: 3.46 | Eff. % [2]: 95%

CC(=CC(=O)Nc1cccc(CON=C(c2ccccc2)c2nnnn2C)n1)C1CCCCC1 [Example 5]
LogP [1]: 4.82 | Eff. % [2]: 90% | Eff. % [3]: 91%

Cn1nnnc1C(=NOCc1cccc(NC(=O)C=CC2CCCCC2)n1)c1ccccc1 [Example 6]
LogP [1]: 4.36 | Eff. % [2]: 95% | Eff. % [3]: 93%

CC(=CC(=O)Nc1nc(CON=C(c2ccccc2)n2nnnc2C)cs1)C1CC1 [Example 7]
LogP [1]: 3.46

Cc1nnnn1C(=NOCc1csc(NC(=O)C=C(c2ccccc2)C2CC2)n1)c1ccccc1 [Example 9]
LogP [1]: 4.26 | Eff. % [2]: 85%

CC(=CC1CCCC1)C(=O)Nc1nc(CON=C(c2ccccc2)n2nnnc2C)cs1 [Example 10]
LogP [1]: 4.16 | Eff. % [2]: 80%

CC(=CC1CC1)C(=O)Nc1nc(CON=C(c2ccccc2)n2nnnc2C)cs1 [Example 11]
LogP [1]: 3.52 | Eff. % [2]: 95%

CC(C)=CC(=O)Nc1nc(CON=C(c2ccccc2)n2nnnc2C)cs1 [Example 12]
LogP [1]: 3.15 | Eff. % [2]: 80%

Cc1nnnn1C(=NOCc1csc(NC(=O)C=CC2CC2)n1)c1ccccc1 [Example 13]
LogP [1]: 3.09

Cc1nnnn1C(=NOCc1csc(NC(=O)C=C(C2CC2)C2CC2)n1)c1ccccc1 [Example 15]
LogP [1]: 3.83

Cc1nnnn1C(=NOCc1csc(NC(=O)C=CC2CCCCC2)n1)c1ccccc1 [Example 16]
LogP [1]: 2.53 | Eff. % [2]: 90%

Cc1nnnn1C(=NOCc1csc(NC(=O)C=C(c2ccccc2)C2CC2)n1)c1ccccc1 [Example 17]
LogP [1]: 2.38

CC(=CC(=O)Nc1nc(CON=C(c2ccccc2)c2nnnn2C)cs1)C1CC1 [Example 18]
LogP [1]: 3.41

CC(=CC(=O)Nc1nc(CON=C(c2ccccc2)c2nnnn2C)cs1)C1CCCCC1 [Example 20]
LogP [1]: 4.66 | Eff. % [2]: 80%

CC(=CC(=O)Nc1nc(CON=C(c2ccccc2)c2nnnn2C)cs1)C1CCCCC1 [Example 21]
LogP [1]: 4.44

Cn1nnnc1C(=NOCc1csc(NC(=O)C=C(c2ccccc2)C2CC2)n1)c1ccccc1 [Example 22]
LogP [1]: 4.21 | Eff. % [2]: 80%

Cn1nnnc1C(=NOCc1csc(NC(=O)C=C(C2CC2)C2CC2)n1)c1ccccc1 [Example 23]
LogP [1]: 3.76 | Eff. % [2]: 85%

Cn1nnnc1C(=NOCc1csc(NC(=O)C=CC2CC2)n1)c1ccccc1 [Example 24]
LogP [1]: 3.04 | Eff. % [2]: 95% | Eff. % [3]: 90%

CC(=CC1CCCC1)C(=O)Nc1nc(CON=C(c2ccccc2)c2nnnn2C)cs1 [Example 26]
LogP [1]: 4.09 | Eff. % [2]: 95% | Eff. % [3]: 90%

CC(=CC1CC1)C(=O)Nc1nc(CON=C(c2ccccc2)c2nnnn2C)cs1 [Example 27]
LogP [1]: 3.44 | Eff. % [2]: 95%

CC(C)=CC(=O)Nc1nc(CON=C(c2ccccc2)c2nnnn2C)cs1 [Example 28]
LogP [1]: 3.08 | Eff. % [2]: 90%

Cn1nnnc1C(=NOCc1csc(NC(=O)C=CC2CCCCC2)n1)c1ccccc1 [Example 29]
LogP [1]: 2.5 | Eff. % [2]: 95%

Cn1nnnc1C(=NOCc1csc(NC(=O)C=C(c2ccccc2)C2CC2)n1)c1ccccc1 [Example 30]
LogP [1]: 2.36 | Eff. % [2]: 85%

Cc1nnnn1C(=NOCc1cccc(NC(=O)C=C(c2ccccc2)C2CC2)n1)c1ccccc1 [Example 33]
LogP [1]: 4.41 | Eff. % [2]: 95%
